Experiments:
HCoV-229E = assay: microbe, parasite or virus in culture; format: cell-based
in vitro [1] = conditions: human, h1 hela cells
in vitro [2] = conditions: human, mrc5 cells
RSV A2 = assay: microbe, parasite or virus in culture; format: cell-based
Polio PV-3 = format: cell-based, PV-3 WM-3
in vitro [3] = conditions: human, hela-ace2 cells
YFV = assay: microbe, parasite or virus in culture; format: cell-based, YFV strain 17D
HRV 16 = assay: microbe, parasite or virus in culture; format: cell-based, Human Rhinovirus 16 strain 11757
CHIKV = assay: microbe, parasite or virus in culture; format: cell-based, CHIKV strain 181/25
in vitro [4] = conditions: human, hct-8 cells
SARS-CoV-1 = format: cell-based
MERS-CoV = format: cell-based, MERS-CoV EMC
HRV 14 = assay: microbe, parasite or virus in culture; format: cell-based, Human Rhinovirus 14 strain 1059
Polio PV-1 = format: cell-based, PV-1 CHAT
in vitro [5] = conditions: human, hep2 cells
MEV = assay: Antiviral activity against MEV; format: cell-based, MEV CC; conditions: FIG. 1
Method: (§1) All other antiviral assays were run at Utah State/Justin Julander through NIAID Preclinical Services. The following virus strains and cell lines were used:
(§2) Compounds were added to cells prior to addition of virus at an appropriate MOI to cause visible CPE. […] For compounds with an SI.5, a virus yield reduction assay was conducted, where supernatant collected from the CPE assay was titered for virus. The EC90 was calculated as the amount of compound needed to reduce the virus titer by 1 log 10.

Flu A H1N1 = assay: Antiviral activity against Flu A H1N1; format: cell-based, Flu A H1N1 California/07/2009; conditions: Flu A H1N1, FIG. 1
Method: as §1, §2

Cytotoxicity, HFF = format: cell-based; conditions: human, hff cells; read-out: HCMV/HFF CC50
SARS-CoV-2 = assay: microbe, parasite or virus in culture; format: cell-based, SARS-CoV-2 strain USA-WA1/2020
COXV-B3 = assay: Antiviral activity against COXV-B3; format: cell-based, COXV-B3 HA 201933; conditions: COXV-B3, FIG. 1
Method: as §1, §2

in vitro [6] = conditions: human, hepg2 cells
ZIKV = assay: microbe, parasite or virus in culture; format: cell-based, ZIKV MR766
HCoV-OC43 = assay: microbe, parasite or virus in culture; format: cell-based, Human Coronavirus
DENV-2 = assay: microbe, parasite or virus in culture; format: cell-based, DENV-2 16681; conditions: for SI (selectivity), DENV-2 HepG2 assay: SI=CC50/EC50
HCMV = assay: HCMV/HFF antiviral assay; format: cell-based; conditions: Human betaherpesvirus 5, HFF
DENV = conditions: cited from earlier work
[7] = cited from earlier work
[8] = Cytotoxicity from screening; format: cell-based

With `Nc1ncnc2c1ccn2[C@@H]1O[C@](F)(CO)[C@@H](O)[C@H]1O` [Example 1, (2S,3S,4R,5R)-5-(4-amino-7H-pyrrolo[2,3-d]pyrimidin-7-yl)-2-fluoro-2-(hydroxymethyl)tetrahydrofuran-3,4-diol] the “efficacy vs RDV parent nucleosides and N-hydroxycytidine, HCoV-229E” value (HCoV-229E; HCoV-229E, FIG. 1) was “more efficacious than RDV parent nucleosides and N-hydroxycytidine”, the EC50 (HCoV-229E; Human coronavirus 229E, MRC5, 120 h, read-out: HCoV-229E/MRC5 EC50) was 100 to 1000 nM and the CC50 (in vitro [1]) was 1000 to 10000 nM. For the same compound, the CC50 (in vitro [2]) was 10000 to 99000 nM, the “efficacy vs RDV parent nucleosides and N-hydroxycytidine, RSV A2” value (RSV A2; RSV A2, FIG. 1) was “more efficacious than RDV parent nucleosides and N-hydroxycytidine” and the EC50 (RSV A2; human respiratory syncytial virus, HEp-2, 72 h, read-out: RSV A2 / Hep2 EC50) was < 100 nM. For the same compound, the “efficacy vs RDV parent nucleosides and N-hydroxycytidine, Polio PV-3” value (Polio PV-3) was “more efficacious than RDV parent nucleosides and N-hydroxycytidine”, the CC50 at 24 h (in vitro [3]) was 1000 to 10000 nM and the “efficacy vs RDV parent nucleosides and N-hydroxycytidine, YFV” value (YFV) was “more efficacious than RDV parent nucleosides and N-hydroxycytidine”. The EC50 (YFV; Yellow fever virus, HepG2, 24 h, read-out: YFV / HepG2 EC50) was < 100 nM, the “efficacy vs RDV parent nucleosides and N-hydroxycytidine, HRV16” value (HRV 16; HRV16, FIG. 1) was “more efficacious than RDV parent nucleosides and N-hydroxycytidine” and the EC50 (HRV 16; Rhinovirus A, H1-HeLa, 48 h, read-out: HRV / H1 HeLa A16 EC50) was 100 to 1000 nM. The EC50 (CHIKV; Chikungunya virus, HepG2, 24 h, read-out: CHIKV / HepG2 EC50) was < 100 nM, the “efficacy vs RDV parent nucleosides and N-hydroxycytidine, CHIKV” value (CHIKV; alphavirus CHIKV, FIG. 1) was “more efficacious than RDV parent nucleosides and N-hydroxycytidine” and the CC50 (in vitro [4]) was 1000 to 10000 nM. For the same compound, the “efficacy vs RDV parent nucleosides and N-hydroxycytidine, SARS-CoV-1” value (SARS-CoV-1) was “more efficacious than RDV parent nucleosides and N-hydroxycytidine”, the “efficacy vs RDV parent nucleosides and N-hydroxycytidine, MERS-CoV” value (MERS-CoV) was “more efficacious than RDV parent nucleosides and N-hydroxycytidine” and the “efficacy vs RDV parent nucleosides and N-hydroxycytidine, HRV14” value (HRV 14; HRV14, FIG. 1) was “more efficacious than RDV parent nucleosides and N-hydroxycytidine”. For the same compound, the EC50 (HRV 14; Rhinovirus B, H1-HeLa, 48 h, read-out: HRV / H1 HeLa B 14 EC50) was 100 to 1000 nM, the “efficacy vs RDV parent nucleosides and N-hydroxycytidine, Polio PV-1” value (Polio PV-1) was “more efficacious than RDV parent nucleosides and N-hydroxycytidine” and the CC50 (in vitro [5]) was 1000 to 10000 nM. For the same compound, the “efficacy vs RDV parent nucleosides and N-hydroxycytidine, MEV” value (MEV) was “more efficacious than RDV parent nucleosides and N-hydroxycytidine”, the “efficacy vs RDV parent nucleosides and N-hydroxycytidine, Flu A H1N1” value (Flu A H1N1) was “more efficacious than RDV parent nucleosides and N-hydroxycytidine” and the CC50 (Cytotoxicity, HFF) was 1000 to 10000 nM. For the same compound, the “activities and selectivity vs known compounds with the same MOA, SARS-CoV-2” value (SARS-CoV-2; SARS-CoV-2) was “improved activities and selectivity”, the “efficacy vs RDV parent nucleosides and N-hydroxycytidine, SARS-CoV-2” value (SARS-CoV-2; SARS-CoV-2, FIG. 1) was “more efficacious than RDV parent nucleosides and N-hydroxycytidine” and the EC50 (SARS-CoV-2; Severe acute respiratory syndrome coronavirus 2, HeLa-ACE2, 24 h, read-out: SARS-CoV-2 / HeLa-ACE2 EC50) was < 100 nM. The “efficacy vs RDV parent nucleosides and N-hydroxycytidine, COXV-B3” value (COXV-B3) was “more efficacious than RDV parent nucleosides and N-hydroxycytidine”, the CC50 at 72 h (in vitro [6]) was 1000 to 10000 nM and the “efficacy vs RDV parent nucleosides and N-hydroxycytidine, ZIKV” value (ZIKV; ZIKV, FIG. 1) was “more efficacious than RDV parent nucleosides and N-hydroxycytidine”. The EC50 (ZIKV; Zika virus, HepG2, 24 h, read-out: ZIKV / HepG2 EC50) was < 100 nM, the EC50 (HCoV-OC43; Betacoronavirus 1, OC43, HCT-8, 48 h, read-out: HCoV-OC43/HCT-8 EC50) was 100 to 1000 nM and the “efficacy vs RDV parent nucleosides and N-hydroxycytidine, HCoV-OC43” value (HCoV-OC43; HCoV-OC43, FIG. 1) was “more efficacious than RDV parent nucleosides and N-hydroxycytidine”. For the same compound, the “activities and selectivity vs known compounds with the same MOA, DENV” value (DENV-2; DENV) was “improved activities and selectivity”, the “activities and selectivity compared to tubercidin and NITD-008” value (DENV-2; DENV2 HepG2 assay) was “improved activities and selectivity compared to tubercidin and NITD-008” and the “efficacy vs RDV parent nucleosides and N-hydroxycytidine, DENV-2” value (DENV-2; DENV-2, FIG. 1) was “more efficacious than RDV parent nucleosides and N-hydroxycytidine”. The EC50 (DENV-2; Dengue virus, DENV2, HepG2, 24 h, read-out: DENV-2 / HepG2 EC50) was < 100 nM and the EC50 (HCMV) was 1000 to 10000 nM.

For `C#C[C@@]1(O)[C@H](O)[C@@H](CO)O[C@H]1n1ccc2c(N)ncnc21` [NITD-008, reference compound], the “efficacy in DENV-infected mouse model” value (DENV) is given as “good efficacy”, the “two-week tox study outcome” value [7] is given as “failed” and the “SI (selectivity), DENV-2 HepG2 assay” value (DENV-2) is given as 52. The “selectivity compared to tubercidin” value (DENV-2; DENV-2 HepG2 assay, FIG. 1) was “improved selectivity compared to tubercidin”.

In the case of `Nc1ncnc2c1ccn2[C@@H]1O[C@H](CO)[C@@H](O)[C@H]1O` [Tubercidin, reference compound], the cytotoxicity from screening [8] is reported as “significant cytotoxicity”, the “antiviral potency against SARS-CoV-2” value (SARS-CoV-2; SARS-CoV-2, screening) is reported as “high antiviral potency” and the “antiviral potency against DENV” value (DENV-2; DENV, screening) is reported as “high antiviral potency”. The “SI (selectivity), DENV-2 HepG2 assay” value (DENV-2) was 2.
